Experimental findings from patent US11964988B2, “Fused heterocyclic compounds as RET kinase inhibitors” (ARRAY BIOPHARMA INC., priority 2018, dated 2024) are described below.

Where a chain is given by its changes, count along the chain named. Like-named read-outs stand apart in the source and are kept apart here.

One experiment addresses RET kinase V804M (Homo sapiens, UniProt P07949, V804M). The experiment is described as follows: RET Enzyme Assay (CisBio HTRF KinEASE-TK), V804M. The format is biochemical. Conditions: read-out: RET V804M Enz FRET IC50. Background: Time-resolved FRET reads energy transfer from a long-lived donor to a nearby acceptor.
For experiment [1], the target named is T1, HEK-293 cells expressing a Kif5b-RET fusion protein (Homo sapiens, UniProt P07949).
T1 construct: KIF5B (N-terminal portion incl. coiled-coil); expressed in transfected cells; host or cells: HEK-293; the other entry of the earlier key: KIF5B (P33176, Kinesin-1 heavy chain)
T1 sequence (P07949 713-1063 limits assumed): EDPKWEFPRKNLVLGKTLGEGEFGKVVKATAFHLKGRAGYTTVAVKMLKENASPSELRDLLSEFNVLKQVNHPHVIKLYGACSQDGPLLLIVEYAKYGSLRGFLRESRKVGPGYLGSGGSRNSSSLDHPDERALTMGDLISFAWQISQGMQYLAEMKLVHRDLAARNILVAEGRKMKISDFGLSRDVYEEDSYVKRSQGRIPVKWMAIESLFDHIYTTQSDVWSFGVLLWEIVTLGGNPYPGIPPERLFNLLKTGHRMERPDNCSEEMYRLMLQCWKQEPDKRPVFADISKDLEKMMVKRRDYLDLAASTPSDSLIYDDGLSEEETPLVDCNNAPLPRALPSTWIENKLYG
Description: RET Cell Assay (phospho-RET Tyr1062). Type of experiment: cell-based. Conditions: HEK-293 Kif5b-RET, 1 hour incubation, phospho-RET normalized to GAPDH; read-out: KIF5B-RET pTYR1062 Cell IC50. The essentials: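 Kif5b-RET HEK-293 cells treated 1 hour with compound in DMEM (0.5% DMSO final), then fixed and immunostained for phospho-RET Tyr1062, normalized to GAPDH by infrared fluorescence. IC50 where the 4-parameter logistic fit of POC crosses 50.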

Experiment [2] deals with T2, HEK-293 cells expressing a G810R mutant RET Kif5b-RET fusion protein (Homo sapiens, UniProt P07949, G810R).
T2 construct: KIF5B (N-terminal portion incl. coiled-coil); expressed in transfected cells; host or cells: HEK-293; the other entry of the earlier key: KIF5B (P33176, Kinesin-1 heavy chain)
T2 sequence (P07949 713-1063 G810R limits assumed): T1 sequence (P07949 713-1063 limits assumed) with G98R
Description: RET G810R Mutant Cell Assay (phospho-RET Tyr1062). The format is cell-based. Conditions: HEK-293 Kif5b-RET G810R, 1 hour incubation, phospho-RET normalized to GAPDH. A digest of the protocol:
(§1)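 Engineered HEK-293 cells were treated 1 h with compound in DMEM, 0.5% DMSO final, then fixed, permeabilized and immunostained for phospho-RET Tyr1062 and GAPDH. In-cell fluorescence pRET signal was normalized to GAPDH; IC50 taken from a 4-parameter logistic fit of percent of control at 50 POC.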

The target in experiment [3] is T3, RET kinase Wild Type (Homo sapiens, UniProt P07949).
T3 sequence (P07949 29-1114): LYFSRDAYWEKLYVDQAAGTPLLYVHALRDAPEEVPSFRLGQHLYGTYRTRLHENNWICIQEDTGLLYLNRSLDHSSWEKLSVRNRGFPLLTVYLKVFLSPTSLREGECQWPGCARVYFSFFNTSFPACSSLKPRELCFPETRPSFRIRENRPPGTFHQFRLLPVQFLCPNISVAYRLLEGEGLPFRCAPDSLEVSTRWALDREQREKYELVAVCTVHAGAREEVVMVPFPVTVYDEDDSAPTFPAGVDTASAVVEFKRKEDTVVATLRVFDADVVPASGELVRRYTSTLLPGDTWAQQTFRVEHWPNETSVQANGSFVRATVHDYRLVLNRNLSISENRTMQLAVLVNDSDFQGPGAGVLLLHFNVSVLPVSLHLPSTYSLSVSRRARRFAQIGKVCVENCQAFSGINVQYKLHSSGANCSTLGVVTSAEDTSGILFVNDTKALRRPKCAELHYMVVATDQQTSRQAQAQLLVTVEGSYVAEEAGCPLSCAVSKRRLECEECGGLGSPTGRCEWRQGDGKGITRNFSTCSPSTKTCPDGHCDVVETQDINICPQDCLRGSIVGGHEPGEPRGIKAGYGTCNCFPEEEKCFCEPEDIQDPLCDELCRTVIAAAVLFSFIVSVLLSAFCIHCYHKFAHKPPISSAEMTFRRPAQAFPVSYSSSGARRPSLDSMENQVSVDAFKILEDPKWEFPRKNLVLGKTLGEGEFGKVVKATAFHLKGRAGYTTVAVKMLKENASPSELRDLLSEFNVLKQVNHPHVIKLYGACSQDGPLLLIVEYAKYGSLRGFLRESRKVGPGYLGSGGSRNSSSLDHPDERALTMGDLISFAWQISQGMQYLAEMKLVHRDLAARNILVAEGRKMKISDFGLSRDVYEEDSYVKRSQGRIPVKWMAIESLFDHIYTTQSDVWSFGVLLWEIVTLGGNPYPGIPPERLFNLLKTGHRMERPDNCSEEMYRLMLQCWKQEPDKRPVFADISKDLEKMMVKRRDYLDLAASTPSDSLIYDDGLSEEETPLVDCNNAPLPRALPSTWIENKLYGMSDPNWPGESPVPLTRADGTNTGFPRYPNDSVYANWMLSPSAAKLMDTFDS
The target of experiment [4] is T4, G810R mutant RET kinase (Homo sapiens, UniProt P07949, G810R).
T4 sequence (P07949 29-1114 G810R): as the sequence (P07949 29-1114) above, with G782R counted along it
For experiment [5], the target named is T5, G810S mutant RET kinase (Homo sapiens, UniProt P07949, G810S).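 Further: HTRF KinEASE-TK kinase assay with recombinant enzyme, 1 h at 22 °C, dual-wavelength ratiometric read-out, percent of control (DMSO-only = 100, pre-quenched reaction = 0).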
T5 sequence (P07949 29-1114 G810S): as the sequence (P07949 29-1114) above, with G782S counted along it
For experiment [6], the target named is T6, HEK-293 cells expressing a G810S mutant RET Kif5b-RET fusion protein (Homo sapiens, UniProt P07949, G810S).
T6 construct: KIF5B (N-terminal portion incl. coiled-coil); expressed in transfected cells; host or cells: HEK-293
T6 sequence (P07949 713-1063 G810S limits assumed): T1 sequence (P07949 713-1063 limits assumed) with G98S
The experiment is described as follows: RET G810S Mutant Cell Assay (phospho-RET Tyr1062). The format is cell-based. Conditions: HEK-293 Kif5b-RET G810S, 1 hour incubation, phospho-RET normalized to GAPDH. A digest of the protocol:
as §1

Experiment [7] concerns the target T3, RET kinase Wild Type. Description: biochemical.
The target of experiment [8] is T4, G810R mutant RET kinase. Description: biochemical.
Experiment [9] addresses T5, G810S mutant RET kinase. Description: biochemical.
[10] abbreviates: V804M RET, 1 mM ATP, averaged IC50.

RET kinase V804M, sequence (P07949 29-1114 V804M): as the sequence (P07949 29-1114) above, with V776M counted along it

As for `C[C@H](n1c2c(c3c(N)ncnc31)-c1noc(C3CC3)c1[C@H](O)CC2)C(F)(F)F` (single isomer, unassigned) [Example 145], the IC50 (commonly the concentration that inhibits the measured activity by half) turned out to be 31 nM on RET kinase V804M (setting [10]); 73 nM in experiment [1]; 120 nM in [2]; 20 nM at RET kinase Wild Type [3]; 85 nM on G810R mutant RET kinase [4]; 101 nM on G810S mutant RET kinase [5].

As to `Nc1ncnc2c1c1c(n2C2CCNC2)CCC(O)c2c-1noc2C1CC1` (stereo not drawn) [Example 132, (Cis)-11-amino-3-cyclopropyl-7-(pyrrolidin-3-yl)-4,5,6,7-tetrahydroisoxazolo[4″,3″:6′,7]cyclohepta[1′,2′:4,5]pyrrolo[2,3-d]pyrimidin-4-ol 2,2,2-trifluoroacetate], the IC50 came to 1940 nM at RET kinase V804M (setting [10]), 1710 nM against RET kinase Wild Type [3], 4460 nM against G810R mutant RET kinase [4] and 2320 nM at G810S mutant RET kinase [5].

As for `Nc1ncnc2c1c1c(n2C2CCNC2)CCC(O)c2c-1noc2C1CC1` (stereo not drawn) [Example 133, (Trans)-11-amino-3-cyclopropyl-7-(pyrrolidin-3-yl)-4,5,6,7-tetrahydroisoxazolo[4″,3″:6′,7′]cyclohepta[1′,2′:4,5]pyrrolo[2,3-d]pyrimidin-4-ol 2,2,2-trifluoroacetate], the IC50 on RET kinase V804M (setting [10]) came out at 6200 nM; on RET kinase Wild Type [3], 2640 nM; against G810R mutant RET kinase [4], 6140 nM; at G810S mutant RET kinase [5], 3400 nM.

Turning to `COC(=O)[C@H]1C[C@H](n2c3c(c4c(N)ncnc42)-c2noc(C4CC4)c2C(=O)CC3)C1` [Example 142, Methyl (1r,3r)-3-(11-amino-3-cyclopropyl-4-oxo-5,6-dihydroisoxazolo[4″,3″:6′,7′]cyclohepta[1′,2′:4,5]pyrrolo[2,3-d]pyrimidin-7(4H)-yl)cyclobutane-1-carboxylate], the IC50 was 505 nM on RET kinase V804M (setting [10]), 124 nM on RET kinase Wild Type [3], 157 nM against G810R mutant RET kinase [4] and 425 nM on G810S mutant RET kinase [5].

Regarding `CC(C)n1c2c(c3c(N)ncnc31)-c1noc(C3CC3)c1C(=O)NC2` [Example 19, 11-amino-3-cyclopropyl-7-isopropyl-6,7-dihydroisoxazolo[4,3-c]pyrimido[5′,4′:4,5]pyrrolo[3,2-e]azepin-4(5H)-one 2,2,2-trifluoroacetate], the IC50 at RET kinase V804M was found to be 202 nM; in [1], 53 nM; in [2], 262 nM; in experiment [6], 184 nM; at RET kinase Wild Type [7], 45 nM; on G810R mutant RET kinase [8], 103 nM. For the same molecule, inhibition on G810S mutant RET kinase [9] was half-maximal at 215 nM (IC50).

Turning to `CC(C)n1c2c(c3c(N)ncnc31)-c1cc3ccc(C(=O)Nc4ccn(CCN5CCOCC5)n4)cc3n1CCC2` [Example 88, 1-amino-5-isopropyl-N-(1-(2-morpholinoethyl)-1H-pyrazol-3-yl)-5,6,7,8-tetrahydropyrimido[5″,4″:4′,5′]pyrrolo[3′,2′: 3,4]azepino[1,2-a]indole-11-carboxamide], the IC50 at RET kinase V804M is 6260 nM; in experiment [1] it was 50 nM; in [2] it was 53 nM; in [6], 44 nM; against RET kinase Wild Type [7] it was 62 nM; against G810R mutant RET kinase [8], 288 nM. For the same molecule, the midpoint of inhibition against G810S mutant RET kinase [9], the IC50, lay at 297 nM.

Regarding `Nc1ncnc2c1c1c(n2C2CCC(O)C2)CCC(O)c2c-1noc2C1CC1` (stereo not shown) [Example 129, 11-Amino-3-cyclopropyl-7-(3-hydroxycyclopentyl)-4,5,6,7-tetrahydroisoxazolo[4″,3″:6′,7′]cyclohepta[1′,2′:4,5]pyrrolo[2,3-d]pyrimidin-4-ol], the IC50 stood at 21 nM on RET kinase V804M; 18 nM in experiment [1]; 46 nM in experiment [2]; 65 nM in [6]; 8 nM against RET kinase Wild Type [7]; 23 nM at G810R mutant RET kinase [8]. The molecule also showed an IC50 at G810S mutant RET kinase [9] of 19 nM.

As to `Nc1ncnc2c1c1c(n2C2CCCC2)CCC(O)c2c-1noc2C1CC1` (stereo not shown) [Example 120, 11-Amino-7-cyclopentyl-3-cyclopropyl-4,5,6,7-tetrahydroisoxazolo[4″,3″:6′,7′]cyclohepta[1′,2′:4,5]pyrrolo[2,3-d]pyrimidin-4-ol], the IC50 on RET kinase V804M came to 20 nM; in [1] it was 15 nM; in experiment [2], 35 nM; in experiment [6], 33 nM; at RET kinase Wild Type [7], 10 nM; against G810R mutant RET kinase [8], 74 nM. The same molecule registered an IC50 at G810S mutant RET kinase [9] of 24 nM.
